Test results reported in article PMC11705451 (FEBS Open Bio, 2024).
Like-named read-outs stand apart in the source and are kept apart here.

Legend:
hS1P3 [1] = target: T1, hS1P3 (Homo sapiens, UniProt Q99500); experiment: […]GTPgammaS binding, CHO-K1 membranes; assay type: biochemical
T1 construct: gene S1PR3; receptor stably expressed in CHO-K1 cells

[2] = target: T2, hS1P4 (ProLink-tagged, PathHunter) (Homo sapiens, UniProt O95977); experiment: PathHunter beta-arrestin recruitment; assay type: cell-based
T2 construct: gene S1PR4; ProLink-tagged receptor, PathHunter HEK293 cells
T2 sequence (O95977 1-384): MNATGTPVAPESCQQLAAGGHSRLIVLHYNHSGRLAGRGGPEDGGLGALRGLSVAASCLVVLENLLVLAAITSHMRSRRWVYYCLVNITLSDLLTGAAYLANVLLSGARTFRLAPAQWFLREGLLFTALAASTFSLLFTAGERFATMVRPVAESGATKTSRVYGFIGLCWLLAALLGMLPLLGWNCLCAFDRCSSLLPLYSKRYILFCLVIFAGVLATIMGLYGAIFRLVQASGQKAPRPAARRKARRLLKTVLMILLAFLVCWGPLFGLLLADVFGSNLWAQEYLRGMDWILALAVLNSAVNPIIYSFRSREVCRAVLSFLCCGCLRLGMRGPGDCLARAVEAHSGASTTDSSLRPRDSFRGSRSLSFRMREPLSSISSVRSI

hS1P4 [3] = target: T3, hS1P4 (Homo sapiens, UniProt O95977); experiment: biochemical; assay type: CHO-K1 membranes; set-up: [35S]GTPgammaS binding to membranes, agonist concentration-response; details: read-out: S1P4 GTPγS Emax, % of S1P
T3 construct: gene S1PR4; receptor stably expressed in CHO-K1 cells
T3 sequence (O95977 1-384): T2 sequence (O95977 1-384)
Excerpt: (§1) All tested compounds were agonists of S1P5, inducing both G protein signaling and β‐arrestin recruitment (Table S2).

hS1P5 [4] = target: T4, hS1P5 (Homo sapiens, UniProt Q9H228); experiment: biochemical; assay type: CHO-K1 membranes; set-up: [35S]GTPgammaS binding to membranes, agonist concentration-response; details: read-out: S1P5 GTPγS Emax, % of S1P
T4 construct: gene S1PR5; receptor stably expressed in CHO-K1 cells
Excerpt: as §1

[5] = target: T5, hS1P5 (ProLink-tagged, PathHunter) (Homo sapiens, UniProt Q9H228); experiment: cell-based; set-up: species or system PathHunter HEK293; PathHunter beta-arrestin recruitment, agonist concentration-response; details: HEK293, read-out: S1P5 β-Arrestin Emax, % of S1P
T5 construct: gene S1PR5; ProLink-tagged receptor, PathHunter HEK293 cells
Excerpt: (§2) We extended our pharmacological analysis of etrasimod and the other test compounds on S1P2–5. […] All tested compounds were agonists of S1P5, inducing both G protein signaling and β‐arrestin recruitment (Table S2).

[6] = target: T2, hS1P4 (ProLink-tagged, PathHunter); experiment: cell-based; set-up: species or system PathHunter HEK293; PathHunter beta-arrestin recruitment, agonist concentration-response; details: HEK293, read-out: S1P4 β-Arrestin Emax, % of S1P
Excerpt: as §2

hS1P4 [7] = target: T3, hS1P4; experiment: […]GTPgammaS binding, CHO-K1 membranes; assay type: biochemical
hS1P5 [8] = target: T4, hS1P5; experiment: […]GTPgammaS binding, CHO-K1 membranes; assay type: biochemical
[9] = target: T5, hS1P5 (ProLink-tagged, PathHunter); experiment: PathHunter beta-arrestin recruitment; assay type: cell-based
[10] = target: T6, hS1P2 (ProLink-tagged, PathHunter) (Homo sapiens, UniProt O95136); experiment: receptor internalization, fluorescence microscopy; assay type: cell-based; details: N-terminal HA tag, 37 °C
T6 construct: gene S1PR2; PathHunter HEK293 cells, ProLink-tagged; N-terminal HA tag in the internalization assay

[11] = target: T6, hS1P2 (ProLink-tagged, PathHunter); experiment: PathHunter beta-arrestin recruitment; assay type: cell-based
hS1P3 [12] = target: T1, hS1P3; experiment: biochemical; assay type: CHO-K1 membranes; set-up: [35S]GTPgammaS binding to membranes, agonist concentration-response; details: read-out: S1P3 GTPγS Emax, % of S1P
Excerpt: as §1

hS1P2 [13] = target: T7, hS1P2 (Homo sapiens, UniProt O95136); experiment: biochemical; assay type: CHO-K1 membranes; set-up: [35S]GTPgammaS binding to membranes, agonist concentration-response; details: read-out: S1P2 GTPγS Emax, % of S1P
T7 construct: gene S1PR2; receptor stably expressed in CHO-K1 cells
Excerpt: as §1

[14] = target: T8, hS1P3 (ProLink-tagged, PathHunter) (Homo sapiens, UniProt Q99500); experiment: cell-based; set-up: species or system PathHunter HEK293; PathHunter beta-arrestin recruitment, agonist concentration-response; details: HEK293, read-out: S1P3 β-Arrestin Emax, % of S1P
T8 construct: gene S1PR3; ProLink-tagged receptor, PathHunter HEK293 cells
Excerpt: as §2

hS1P2 [15] = target: T7, hS1P2; experiment: […]GTPgammaS binding, CHO-K1 membranes; assay type: biochemical

T1 sequence (Q99500 whole entry): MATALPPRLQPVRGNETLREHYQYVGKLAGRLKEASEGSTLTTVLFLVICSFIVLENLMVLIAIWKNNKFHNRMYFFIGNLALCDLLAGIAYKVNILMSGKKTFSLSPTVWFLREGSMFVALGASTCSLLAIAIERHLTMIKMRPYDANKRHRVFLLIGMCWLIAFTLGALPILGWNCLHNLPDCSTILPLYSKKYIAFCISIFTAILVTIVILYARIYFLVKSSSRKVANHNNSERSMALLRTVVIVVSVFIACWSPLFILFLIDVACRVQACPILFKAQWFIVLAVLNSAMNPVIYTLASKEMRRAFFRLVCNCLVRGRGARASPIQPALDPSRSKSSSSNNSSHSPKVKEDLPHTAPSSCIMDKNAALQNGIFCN
T5 sequence (Q9H228 whole entry): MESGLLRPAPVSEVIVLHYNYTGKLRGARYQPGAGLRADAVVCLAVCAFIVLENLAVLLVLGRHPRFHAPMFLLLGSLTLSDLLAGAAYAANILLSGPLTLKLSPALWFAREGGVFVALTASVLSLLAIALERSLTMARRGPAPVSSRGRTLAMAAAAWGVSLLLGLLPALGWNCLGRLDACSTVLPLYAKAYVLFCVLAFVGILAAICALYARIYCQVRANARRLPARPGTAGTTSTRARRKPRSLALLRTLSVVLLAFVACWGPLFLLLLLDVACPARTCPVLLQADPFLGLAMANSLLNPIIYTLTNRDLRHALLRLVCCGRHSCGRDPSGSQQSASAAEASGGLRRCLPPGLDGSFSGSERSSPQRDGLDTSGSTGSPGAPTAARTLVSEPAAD
T4 sequence (Q9H228 whole entry): as above
T7 sequence (O95136 whole entry): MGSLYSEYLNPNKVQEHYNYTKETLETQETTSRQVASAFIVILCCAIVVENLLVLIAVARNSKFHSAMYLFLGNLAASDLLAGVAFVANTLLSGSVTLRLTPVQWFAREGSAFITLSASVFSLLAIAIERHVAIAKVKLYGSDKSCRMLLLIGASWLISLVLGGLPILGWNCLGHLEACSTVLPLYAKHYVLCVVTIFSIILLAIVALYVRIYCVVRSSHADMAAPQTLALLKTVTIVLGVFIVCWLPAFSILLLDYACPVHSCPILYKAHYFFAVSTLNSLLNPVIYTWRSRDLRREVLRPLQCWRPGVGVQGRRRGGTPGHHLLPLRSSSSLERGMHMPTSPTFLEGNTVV
T6 sequence (O95136 whole entry): as above
T8 sequence (Q99500 whole entry): as the sequence (Q99500 whole entry) above

With `CCc1cc(/C(C)=N/OCc2ccc(C3CCCCC3)c(C(F)(F)F)c2)ccc1CN1CC(C(=O)O)C1` [Siponimod] as the compound, how does the EC50 (hS1P3 [1]) read?
The EC50 was > 10000 nM.

What about the EC50 [2] of the same compound?
Its EC50 is > 500 nM.

And the Emax (hS1P4 [3])?
The Emax was 134%.

And the Emax (hS1P5 [4])?
Its Emax is 118%.

And the Emax [5]?
The Emax was 107%.

And the Emax [6]?
The Emax was 92.6%.

What about the EC50 (hS1P4 [7]) of the same compound?
Its EC50 is 510 nM.

With `CC(C)Oc1ccc(-c2nc(-c3cccc4c3CCC4=O)no2)cc1C#N` [Ozanimod(K)] as the compound, how does the EC50 (hS1P3 [1]) read?
The EC50 was > 10000 nM.

What about the EC50 [2] of the same compound?
The EC50 was > 500 nM.

What about the EC50 (hS1P5 [8]) of the same compound?
The EC50 was 58.5 nM.

And the Emax (hS1P5 [4])?
Its Emax is 105%.

What about the Emax [5] of the same compound?
Its Emax is 115%.

And the Emax [6]?
Its Emax is 89.1%.

And the EC50 [9]?
Its EC50 is 95.8 nM.

What about the EC50 (hS1P4 [7]) of the same compound?
The EC50 was > 10000 nM.

For `CC(C)Oc1ccc(-c2nc(-c3cccc4c3CC[C@@H]4NCCO)no2)cc1C#N` [Ozanimod], which EC50 (hS1P3 [1]) is on record?
The EC50 was > 6000 nM.

What about the EC50 [2] of the same compound?
The EC50 was > 500 nM.

What about the “receptor internalization, fluorescence microscopy” value [10] of the same compound?
Its value is “Fingolimod(P) and ozanimod induced robust S1P2 internalization in a dose‐dependent and saturable fashion”.

And the EC50 (hS1P5 [8])?
The EC50 was 28.8 nM.

And the EC50 [9]?
The EC50 was 12.3 nM.

And the EC50 (hS1P4 [7])?
The EC50 was > 10000 nM.

How did the EC50 [2] turn out when `CCCCCCCCc1ccc(CCC(N)(CO)COP(=O)(O)O)cc1` (stereo not shown) [Fingolimod(P)] was run?
Its EC50 is 6.9 nM.

And the EC50 ([11]; agonist, 0.1% fatty acid-free BSA, room temperature, 2 h)?
The EC50 was “fingolimod(P) was a weak agonist, in terms of both potency and efficacy”.

What about the Emax (hS1P3 [12]) of the same compound?
Its Emax is 39.1%.

And the Emax (hS1P2 [13])?
The Emax was 35.2%.

And the Emax (hS1P4 [3])?
The Emax was 121%.

What about the Emax (hS1P5 [4]) of the same compound?
Its Emax is 69.5%.

And the Emax [5]?
The Emax was 48.4%.

What about the Emax [6] of the same compound?
Its Emax is 77.6%.

And the Emax [14]?
The Emax was 9.1%.

And the EC50 (hS1P4 [7])?
Its EC50 is 6.1 nM.

And the EC50 (hS1P2 [15]; agonist, 0.1% fatty acid-free BSA, room temperature, 10 mM MgCl2)?
Its EC50 is “fingolimod(P) was a weak agonist, in terms of both potency and efficacy”.

What does the source list for `O=C(O)C[C@H]1CCc2c1[nH]c1ccc(OCc3ccc(C4CCCC4)c(C(F)(F)F)c3)cc21` [Etrasimod]?
EC50 (hS1P3 [1]): 6050 nM; EC50 [2]: 141 nM; EC50 ([11]; read-out: EC50): > 10000 nM; EC50 (hS1P5 [8]): 63.4 nM; Emax (hS1P3 [12]): 41.5%; Emax (hS1P5 [4]): 72%; Emax [5]: 85.7%; Emax [6]: 53.9%; EC50 [9]: 63.5 nM; EC50 (hS1P4 [7]): > 10000 nM; EC50 (hS1P2 [15]; read-out: EC50): > 10000 nM
